No end group written: not given here.
Tested on: anti-GD2 ganglioside mAb 3F8
Test: Inhibition assay: inhibition of binding of anti-GD2 mAb 3F8 to GD2 ganglioside bearing melanoma cells
Conditions: GD2 (+) human melanoma cells
Method: Peptide mimics of GD2 ganglioside can be isolated by panning phage display peptide libraries with anti-GD2 ganglioside such as mAbs 3F8, 5F11, and KM666 that recognize different epitopes on GD2 ganglioside. Anti-GD2 ganglioside mAbs can be used to isolate phage that display antibody reactive peptides. After phage panning, the binding ability of isolated phage colonies to anti-GD2 ganglioside mAbs is tested with immunoscreening and further confirmed by ELISA. Anti-GD2 antibody reactive phage clone and the same phage without displaying peptides, can be utilized as a positive and a negative controls respectively in the immunoscreening and ELISA. In the positive phage clones, the DNA inserts that encode the antibody reactive peptides can be sequenced. Peptides can be synthesized based on the sequences of the DNA inserts. The synthesized peptides are tested in ELISA to determine their binding reactivity with corresponding anti-GD2 ganglioside mAbs. […] The synthetic peptides that inhibit or block the binding of anti-GD2 ganglioside mAbs to GD2 ganglioside can be tested as active immunotherapy candidates.
The synthesized peptides were tested with reverse ELISA and inhibition assay with mAb 3F8. […] Peptide J51 contains HLA-B7 and HLA-DRB1 binding motifs.

| Substance | inhibition of the binding of mAb 3F8 to GD2 ganglioside bearing melanoma cells |
| --- | --- |
| DCFRGDPYQPKWRLC (J51 peptide mimic for GD2) [Peptide J51, GD2 peptide mimic from PVIII X15 library] | inhibited the binding |
| cJ51: cyclic peptide J51, which mimics the structure of GD2 ganglioside (DCFRGDPYQPKWRLC; also: cyclic, cyclising bond not given here) | inhibit the binding |

— US6939948B1, “GD2 peptide mimics” (Health Research, Inc., priority 2002, dated 2005)
